Results taken from paper PMC11694061 (Cancer Research, 2024).
Like-named read-outs stand apart in the source and are kept apart here.

Tests used:
[1] = test system: K562 cells; assay: Proliferation, K562; format: cell-based, human; conditions: Table S1 screening, read-out: IC50 (cell proliferation inhibition in K562 cells)
Description: Cells were inoculated onto 96-well plates and treated with compounds in serial dilutions for 3 or 5 days. […] The cell viability of primary patient samples was tested using the CellTiter-Glo Luminescent Assay kit (G7573, Promega) according to the manufacturer’s instructions. […] The optical density (OD) values were obtained using a SPARK microplate reader (Tecan). IC50 was calculated using GraphPad Prism 8.0.2 (nonlinear regression analysis with four parameters). Drug synergy was evaluated with combination index (CI) values using CalcuSyn Demo Version 2.0 software. CI > 1 indicates antagonism, CI < 1 indicates synergy, and CI = 1 indicates additivity.

[2] = target: T1, SOS1 in K562 cells (Homo sapiens, UniProt Q07889); assay: SOS1 degradation in K562 cells (Western blot); format: cell-based
T1 construct: endogenous in cells; host or cells: K562
T1 sequence (Q07889 1-1333): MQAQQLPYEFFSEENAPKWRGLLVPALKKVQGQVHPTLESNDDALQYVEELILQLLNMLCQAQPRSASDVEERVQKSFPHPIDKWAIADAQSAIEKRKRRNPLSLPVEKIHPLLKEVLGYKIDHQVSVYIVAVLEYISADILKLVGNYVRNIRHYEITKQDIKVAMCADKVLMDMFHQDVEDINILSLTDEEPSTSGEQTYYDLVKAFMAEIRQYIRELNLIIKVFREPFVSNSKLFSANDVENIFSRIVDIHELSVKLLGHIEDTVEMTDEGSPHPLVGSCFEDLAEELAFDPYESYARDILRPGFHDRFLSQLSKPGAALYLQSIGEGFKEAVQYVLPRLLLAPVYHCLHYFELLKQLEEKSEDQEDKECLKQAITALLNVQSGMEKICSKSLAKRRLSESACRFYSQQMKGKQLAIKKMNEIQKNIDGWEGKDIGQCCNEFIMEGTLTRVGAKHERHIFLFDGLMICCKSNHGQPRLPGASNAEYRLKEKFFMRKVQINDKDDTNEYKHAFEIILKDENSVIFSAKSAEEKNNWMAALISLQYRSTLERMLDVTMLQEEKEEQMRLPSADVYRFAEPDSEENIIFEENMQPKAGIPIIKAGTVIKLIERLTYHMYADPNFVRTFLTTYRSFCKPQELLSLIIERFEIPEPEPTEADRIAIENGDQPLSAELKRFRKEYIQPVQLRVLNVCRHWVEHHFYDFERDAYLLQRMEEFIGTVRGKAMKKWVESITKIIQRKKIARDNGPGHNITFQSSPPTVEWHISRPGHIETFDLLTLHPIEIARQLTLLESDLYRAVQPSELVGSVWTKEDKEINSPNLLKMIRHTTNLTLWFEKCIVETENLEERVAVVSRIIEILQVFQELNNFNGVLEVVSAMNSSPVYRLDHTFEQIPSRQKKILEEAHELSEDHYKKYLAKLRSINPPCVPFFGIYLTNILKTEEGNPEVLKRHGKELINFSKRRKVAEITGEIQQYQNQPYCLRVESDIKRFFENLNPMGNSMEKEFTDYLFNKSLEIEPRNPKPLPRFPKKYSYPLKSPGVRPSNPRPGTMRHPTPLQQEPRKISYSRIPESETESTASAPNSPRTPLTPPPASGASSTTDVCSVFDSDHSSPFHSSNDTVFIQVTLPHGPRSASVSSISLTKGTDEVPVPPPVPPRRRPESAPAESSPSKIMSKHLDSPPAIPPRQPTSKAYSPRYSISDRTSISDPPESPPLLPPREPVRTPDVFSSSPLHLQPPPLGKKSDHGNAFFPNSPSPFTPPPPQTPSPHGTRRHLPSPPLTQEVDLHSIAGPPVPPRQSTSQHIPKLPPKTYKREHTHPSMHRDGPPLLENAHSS
Description: After treatment, the cells were harvested with SDS lysis buffer, and SDS-PAGE gels were used to split the proteins in the lysate solutions. […] AB_2758039).

| SMILES | IC50 ([1]; Homo sapiens, K562) [µM] | percent SOS1 degradation at 0.1 µM ([2]; 0.1 μM) [%] | percent SOS1 degradation at 1 µM ([2]; 1.0 μM) [%] | IC50 [1] [µM] | Degradation of SOS1 (%) ([2]; 0.1 μM) | Degradation of SOS1 (%) ([2]; 1.0 μM) |
| --- | --- | --- | --- | --- | --- | --- |
| COc1cc2nc(C)nc(N[C@H](C)c3cc(N)cc(C(F)(F)F)c3)c2cc1O[C@H]1CCN(C(=O)CSc2cccc3c2CN(C2CCC(=O)NC2=O)C3=O)C1 (stereo partly drawn) [SIAIS561092] | 7.29 ± 1.01 | -26.5 ± 8.3 | 8.1 ± 2.3 | – | – | – |
| COc1cc2nc(C)nc(N[C@H](C)c3cc(N)cc(C(F)(F)F)c3)c2cc1O[C@H]1CCN(C(=O)CCCCCCCCCCSc2cccc3c2CN(C2CCC(=O)NC2=O)C3=O)C1 (stereo partly drawn) [SIAIS561098] | 11.5 ± 0.515 | 1.1 ± 1 | 17 ± 2.2 | – | – | – |
| COc1cc2nc(C)nc(N[C@H](C)c3cc(N)cc(C(F)(F)F)c3)c2cc1O[C@H]1CCN(CCCSc2cccc3c2CN(C2CCC(=O)NC2=O)C3=O)C1 (stereo partly drawn) [SIAIS561084] | – | – | – | 1.31 ± 0.176 | 7.3 ± 8.5 | -19.5 ± 2.2 |
| COc1cc2nc(C)nc(N[C@H](C)c3cc(N)cc(C(F)(F)F)c3)c2cc1O[C@H]1CCN(CCSc2cccc3c2CN(C2CCC(=O)NC2=O)C3=O)C1 (stereo partly drawn) [SIAIS561091] | – | – | – | 1.2 ± 0.0658 | 36.2 ± 5.7 | 27.0 ± 7.5 |
| COc1cc2nc(C)nc(N[C@H](C)c3cc(N)cc(C(F)(F)F)c3)c2cc1O[C@H]1CCN(CCCCCCCCCCCSc2cccc3c2CN(C2CCC(=O)NC2=O)C3=O)C1 (stereo partly drawn) [SIAIS562019] | 0.846 ± 0.157 | 4.6 ± 1.8 | 38.7 ± 1.1 | – | – | – |
| COc1cc2nc(C)nc(N[C@H](C)c3cc(N)cc(C(F)(F)F)c3)c2cc1OC1CCN(C(=O)CSc2cccc3c2CN(C2CCC(=O)NC2=O)C3=O)CC1 (stereo partly drawn) [SIAIS561131] | 17.8 ± 3.9 | 12.3 ± 6.5 | -2.3 ± 9.5 | – | – | – |
| COc1cc2nc(C)nc(N[C@H](C)c3cc(N)cc(C(F)(F)F)c3)c2cc1O[C@H]1CCN(C(=O)CCCCSc2cccc3c2CN(C2CCC(=O)NC2=O)C3=O)C1 (stereo partly drawn) [SIAIS561086] | 7.69 ± 0.0912 | 22.7 ± 1.7 | 33.5 ± 4.7 | – | – | – |
| COc1cc2nc(C)nc(N[C@H](C)c3cc(N)cc(C(F)(F)F)c3)c2cc1O[C@H]1CCN(C(=O)CCCCCCCCCSc2cccc3c2CN(C2CCC(=O)NC2=O)C3=O)C1 (stereo partly drawn) [SIAIS561097] | 15.1 ± 2.04 | -10.2 ± 5.5 | -20.9 ± 9 | – | – | – |
| COc1cc2nc(C)nc(N[C@H](C)c3cc(N)cc(C(F)(F)F)c3)c2cc1O[C@H]1CCN(C(=O)CCCSc2cccc3c2CN(C2CCC(=O)NC2=O)C3=O)C1 (stereo partly drawn) [SIAIS561094] | 7.13 ± 0.224 | 32.9 ± 0.4 | 35.3 ± 0.6 | – | – | – |
| COc1cc2nc(C)nc(N[C@H](C)c3cc(N)cc(C(F)(F)F)c3)c2cc1O[C@H]1CCN(CCCCCCCCCCCCSc2cccc3c2CN(C2CCC(=O)NC2=O)C3=O)C1 (stereo partly drawn) [SIAIS562020] | 0.822 ± 0.083 | 30.4 ± 0.3 | 86.4 ± 0.4 | – | – | – |
| COc1cc2nc(C)nc(N[C@H](C)c3cc(N)cc(C(F)(F)F)c3)c2cc1O[C@H]1CCN(C(=O)CCSc2cccc3c2CN(C2CCC(=O)NC2=O)C3=O)C1 (stereo partly drawn) [SIAIS561093] | 16.4 ± 2.44 | 19.9 ± 1.8 | 24.7 ± 4.4 | – | – | – |

Now from value to compound:

| IC50 ([1]; Homo sapiens, K562) [µM] | percent SOS1 degradation at 0.1 µM ([2]; 0.1 μM) [%] | percent SOS1 degradation at 1 µM ([2]; 1.0 μM) [%] | IC50 [1] [µM] | Degradation of SOS1 (%) ([2]; 0.1 μM) | Degradation of SOS1 (%) ([2]; 1.0 μM) | SMILES |
| --- | --- | --- | --- | --- | --- | --- |
| 7.08 ± 0.216 | 44.4 ± 6.5 | 49.7 ± 14 | – | – | – | COc1cc2nc(C)nc(N[C@H](C)c3cc(N)cc(C(F)(F)F)c3)c2cc1O[C@H]1CCN(C(=O)CCCCCCCCSc2cccc3c2CN(C2CCC(=O)NC2=O)C3=O)C1 (stereo partly drawn) [SIAIS562079] |
| 8.97 ± 0.146 | -14.6 ± 1.1 | 11 ± 0.6 | – | – | – | COc1cc2nc(C)nc(N[C@H](C)c3cc(N)cc(C(F)(F)F)c3)c2cc1OC1CCN(C(=O)CCCCCCCCCCSc2cccc3c2CN(C2CCC(=O)NC2=O)C3=O)CC1 (stereo partly drawn) [SIAIS561138] |
| 6.51 ± 0.514 | 53.5 ± 0.6 | 39.9 ± 0.9 | – | – | – | COc1cc2nc(C)nc(N[C@H](C)c3cc(N)cc(C(F)(F)F)c3)c2cc1O[C@H]1CCN(C(=O)CCCCCSc2cccc3c2CN(C2CCC(=O)NC2=O)C3=O)C1 (stereo partly drawn) [SIAIS561087] |
| 0.112 ± 0.0042 | -14.7 ± 10.2 | -3.8 ± 4.2 | – | – | – | COc1cc2nc(C)nc(N[C@H](C)c3cc(N)cc(C(F)(F)F)c3)c2cc1OC1CCN(C(=O)CCSc2cccc3c2CN(C2CCC(=O)NC2=O)C3=O)CC1 (stereo partly drawn) [SIAIS561132] |
| 2.75 ± 0.36 | -15.2 ± 2 | 7.7 ± 4.3 | – | – | – | COc1cc2nc(C)nc(N[C@H](C)c3cc(N)cc(C(F)(F)F)c3)c2cc1OC1CCN(C(=O)CCCCCCCSc2cccc3c2CN(C2CCC(=O)NC2=O)C3=O)CC1 (stereo partly drawn) [SIAIS561139] |
| 2.53 ± 0.261 | 18.2 ± 6.2 | 49.3 ± 2.2 | – | – | – | COc1cc2nc(C)nc(N[C@H](C)c3cc(N)cc(C(F)(F)F)c3)c2cc1OC1CCN(C(=O)CCCCCCSc2cccc3c2CN(C2CCC(=O)NC2=O)C3=O)CC1 (stereo partly drawn) [SIAIS561136] |
| 4.95 ± 0.412 | -46.9 ± 11 | 5.5 ± 3.2 | – | – | – | COc1cc2nc(C)nc(N[C@H](C)c3cc(N)cc(C(F)(F)F)c3)c2cc1OC1CCN(C(=O)CCCCCCCCSc2cccc3c2CN(C2CCC(=O)NC2=O)C3=O)CC1 (stereo partly drawn) [SIAIS562080] |
| 3.06 ± 1.1 | 3.6 ± 3.2 | 15.7 ± 3 | – | – | – | COc1cc2nc(C)nc(N[C@H](C)c3cc(N)cc(C(F)(F)F)c3)c2cc1OC1CCN(C(=O)CCCCCCCCCSc2cccc3c2CN(C2CCC(=O)NC2=O)C3=O)CC1 (stereo partly drawn) [SIAIS561137] |
| 5.23 ± 1.39 | 26.7 ± 3 | 3.9 ± 4.7 | – | – | – | COc1cc2nc(C)nc(N[C@H](C)c3cc(N)cc(C(F)(F)F)c3)c2cc1O[C@H]1CCN(C(=O)CCCCCCSc2cccc3c2CN(C2CCC(=O)NC2=O)C3=O)C1 (stereo partly drawn) [SIAIS561095] |
| 3.6 ± 0.103 | 5.2 ± 12.8 | 14.2 ± 11.1 | – | – | – | COc1cc2nc(C)nc(N[C@H](C)c3cc(N)cc(C(F)(F)F)c3)c2cc1OC1CCN(C(=O)CCCCSc2cccc3c2CN(C2CCC(=O)NC2=O)C3=O)CC1 (stereo partly drawn) [SIAIS561134] |
| 4.13 ± 0.34 | -5.4 ± 2.2 | 35.5 ± 1 | – | – | – | COc1cc2nc(C)nc(N[C@H](C)c3cc(N)cc(C(F)(F)F)c3)c2cc1OC1CCN(C(=O)CCCCCCCCCCCSc2cccc3c2CN(C2CCC(=O)NC2=O)C3=O)CC1 (stereo partly drawn) [SIAIS562083] |
| 1.85 ± 0.455 | 11.3 ± 4.8 | 12.7 ± 6.3 | – | – | – | COc1cc2nc(C)nc(N[C@H](C)c3cc(N)cc(C(F)(F)F)c3)c2cc1OC1CCN(C(=O)CCCCCSc2cccc3c2CN(C2CCC(=O)NC2=O)C3=O)CC1 (stereo partly drawn) [SIAIS561135] |
